According to US11352421B2, “Treatment for adverse immune reaction to metal implant debris” (RUSH UNIVERSITY MEDICAL CENTER, priority 2018, dated 2022):
*: point of attachment. Cbz = O=C(OCc1ccccc1)*; CH2F = FC*

Columns and labels:
[1] = test system: human peripheral blood mononuclear cells; test: Metal-LTT of human lymphocytes (PBMCs): proliferation by 3H-thymidine incorporation with inflammasome or IL-17A inhibitors; type: cell-based; settings: for lymphocyte proliferation in response to Ni in the presence of inhibitor / lymphocyte proliferation to Ni combined with inhibitor compared to media control: metal-reactive individuals' lymphocytes, 6 days; for lymphocyte proliferation in response to Ni in the presence of inhibitor: compared with Ni challenge without inhibitor; for lymphocyte proliferation to Ni combined with inhibitor compared to media control: versus media challenge; for lymphocyte proliferation, mean response to Ni: Ni alone
Method: De-identified human peripheral blood mononuclear cells were isolated from 30 mL of peripheral blood using density gradient separation (Ficoll-isopaque, Pharmacia, Piscataway, N.J.). Ficoll gradient separated mononuclear cells are generally comprised of 85-95% lymphocytes with 5-13% monocytes and <0.1% dendritic cells with limited contamination (i.e., <5% erythrocytes and <3% granulocytes). Collected PBMCs (white buffy coat) were washed in sterile 1×PBS and resuspended in RPMI-1640 medium with 10% autologous serum and cultured with either no metal (plain media) as a negative control, PHA as a positive control, or with soluble nickel (NiCl2) or cobalt (CoCl2) at 37° C. and […] for 6 days. At day 5 of cell culture, ^3H-thymidine was added. At day 6, T-cell proliferation was assessed via ^3H-thymidine incorporation that was determined using a beta scintillation counter.
(§1) Isolated human PBMCs were co-incubated in vitro with either MCC950, a NLRP3 inflammasome inhibitor (InvivoGen), Caspase-1 inhibitor (Caspase-1/ICE inhibitor Z-WEHD-FMK) or recombinant human IL-1Ra (R&D Systems. Inc., Minneapolis, Minn.) for metal-LTT assay or cytokine analysis according to manufacturer's protocol and working concentration. Caicedo et al., J. Biomed. Mater. Res. A 93(4):1312-1321 (2010).
(§2) Isolated human PBMCs were co-incubated in vitro with IL-17A monoclonal antibody (eBio64CAP17; ThermoFisher Scientific) for neutralization of IL-17A bioactivity for metal-lymphocyte transformation test assay or cytokine analysis according to the manufacturer's protocol and concentration.

IFN-γ [2] = test: Sandwich ELISA for human IFN-γ in supernatants of metal-challenged PBMCs; type: cell-based; settings: metal-reactive individuals' lymphocytes; supernatants harvested on day 6
Method: as §1, §2
(§3) Sandwich ELISAs for mouse IL-17A/F and IFN-γ (R&D Systems Inc., Minneapolis, Minn.) were used to detect cytokine production in both non-sensitized and metal-sensitized female mouse spleens and isolated CD4+ T-cells that were harvested 48 h post paw re-challenge to metal allergen (day 14). Supernatants from control and metal-challenged murine cells were collected after 4 days. […] All samples for ELISA were performed in triplicate in 96 well plates and were stored at −80° C. until analysis, following manufacturer's protocol.

IL-17A/F [3] = test: Sandwich ELISA for human IL-17A/F in supernatants of metal-challenged PBMCs; type: cell-based; settings: metal-reactive individuals' lymphocytes; supernatants harvested on day 6
Method: as §1, §2, §3

IFN-γ [4] = test: Sandwich ELISA for mouse IFN-γ in supernatants of metal-challenged CD4+ T cells; type: cell-based; settings: CD4+ T cells from metal-sensitized Caspase-1−/− mice
Method: (§4) In addition to determination of paw swelling after recall with NiCl2, proliferation in vitro of lymphocytes was measured. Spleens were obtained aseptically 48 h after challenge and splenic effector CD4+ T cells were isolated using negative selection kit following manufacturer's protocol (EasySep Mouse CD4+ T cell isolation kit; 2.5×10^5 cells/per well in 96 well flat bottom plates). Splenic CD4+ T cells were co-incubated with syngeneic mitomycin-C treated naïve splenic (2.5×10^5 cells/per well) antigen-presenting cells (APCs) with or without 0.0001 mM or 0.001 mM of soluble metal ions NiCl2 or CoCl2, and 0.01 mg/mL phytohemagglutinin (PHA) as a positive control, in RPMI 1640 media containing 10% fetal bovine serum (FBS; Hyclone Laboratories, Inc.) at 37° C. and […] for 4 days. Syngeneic naïve spleen APCs were incubated at 5×10^6 cells/mL with 25 μg/mL of mitomycin-C for 30 minutes to inactivate proliferation. At day 3 of cell culture, ^3H-thymidine was added. At day 4, T-cell proliferation was assessed via ^3H-thymidine incorporation that was determined using a beta scintillation counter.
(§5) Sandwich ELISAs for mouse IL-17A/F and IFN-γ (R&D Systems Inc., Minneapolis, Minn.) were used to detect cytokine production in both non-sensitized and metal-sensitized female mouse spleens and isolated CD4+ T-cells that were harvested 48 h post paw re-challenge to metal allergen (day 14). […]

[5] = test system: metal-sensitized C57BL/6 mice; test: In vivo delayed type hypersensitivity (DTH) to orthopedic implant metal(s): paw inflammation by digital caliber; settings: day 14, no treatment, p<0.0001 vs vehicle group
Method: DTH responses comprise two phases: (1) sensitization and (2) effector phase. […] Ashrin et al., J. Immunol. 192(9):4025-4031 (2014); Sato et al., Clin. Exp. Allergy 37(5):743-751 (2007). […] (2) Effector phase to implant metal(s): Re-exposure to the metal allergen leads to DTH reaction during the effector phase. Therefore, on day 12, a 50 μL mixture of either sterile 1×PBS (control group) or NiCl2 (metal-sensitized group) with an equivalent volume of CFA was injected subcutaneously on top of the right paw. DTH was determined 48 h post re-exposure to metal allergen (day 14) by measuring changes in paw inflammation using a digital caliber (blinded assessment) and the induced difference was recorded. Each group consisted of 3-5 mice and experiments were performed at least three independent times.
Anti-mouse IL-1R1: A set of metal-sensitized C57BL/6 female mice received local paw administration on day 12 with 200 μg of anti-mouse IL-1R1 (for local in vivo blocking of IL-1R during the effector phase of metal-DTH responses) (clone JAMA-147; BioLegend, San Diego, Calif.) in concert with NiCl2 and CFA. Rogers et al., Proc. Natl. Acad. Sci. USA 89(3):1011-1015 (1992); Rogers et al., J. Immunol. 153(5):2093-2101 (1994). […]

IL-17A/F [6] = test: Sandwich ELISA for mouse IL-17A/F in supernatants of metal-challenged CD4+ T cells; type: cell-based; settings: CD4+ T cells from metal-sensitized Caspase-1−/− mice
Method: as §4, §5

Row | Compound | lymphocyte proliferation in response to Ni in the presence of inhibitor [1] | lymphocyte proliferation to Ni combined with inhibitor compared to media control [1] | IFN-γ production to metal challenge in the presence of inhibitor (IFN-γ [2]) | IL-17A/F production to metal challenge in the presence of inhibitor (IL-17A/F [3]) | IFN-γ mean secretion in response to Ni (IFN-γ [4]) | lymphocyte proliferation, mean response to Ni ([1]; other groups of individuals (FIGS. 9A, 9B, 10A)) | lymphocyte proliferation, mean response to Ni ([1]; subset of individuals tested with anti-IL-17A (n=11)) | mean paw inflammation upon challenge with Ni [5] | IL-17A/F mean secretion in response to Ni (IL-17A/F [6]) | relative effectiveness in mitigating lymphocyte metal reactivity (comparison among inhibitors) ([1]; comparison of MCC950, Caspase-1 inhibitor, IL-1Ra, anti-IL-17A)
1 | CC(C)(O)c1coc(S(=O)(=O)NC(=O)Nc2c3c(cc4c2CCC4)CCC3)c1 [MCC950, reference compound] | only a weak proliferative response | significant increases in cell proliferation | not affected | significantly suppressed | – | – | – | – | – | –
2 | [Cl][Ni][Cl] [Ni, Nickel (II) chloride] | – | – | – | – | 956.6 pg/mL | approximately 4,000 cpm | 10,600 cpm | 6.195 mm | 131.5 pg/mL | –
3 | Cbz-WEHD-CH2F [Caspase-1 inhibitor, reference compound] | significantly reduced lymphocyte reactivity | significant increases in cell proliferation | significantly suppressed both IL-17 and IFN-γ production | significantly suppressed | – | – | – | – | – | –
4 | IL-1Ra: recombinant human IL-1Ra (R&D Systems), IL-1 receptor antagonist; b178 equates IL-1Ra with ANAKINRA | significantly reduced lymphocyte proliferative responses | non-significantly different compared to media challenge | – | significantly suppressed | – | – | – | – | – | most effective inflammasome based inhibitor
